The values below come from patent publication US4659727A, “Ethene derivatives” (May & Baker Limited, priority 1984, dated 1987).

Molecules are shown by their SMILES.

The test system of the first assay is delayed-type hypersensitivity (Type IV hypersensitivity reaction), foot pad swelling. Kind of assay: delayed-type hypersensitivity (DTH) test, foot pad swelling. The assay is classed as in vivo. To be noted: mice, dose 10 mg/kg animal body weight. An excerpt: Compounds of formula I were also submitted to the delayed-type hypersensitivity (DTH) test, which is an in-vivo model of cellular immunity (Type IV hypersensitivity reaction) which is suppressed by antirheumatic drugs. Previously sensitised mice receive antigen challenge (using methylated bovine serum albumen) by foot pad injection and the resulting foot pad swelling is compared in control animals and animals treated with compounds of formula I.
One may read the % inhibition as the change of the read-out against control, counted positive when it falls. Low values mean little suppression, high ones strong suppression. In the case of `O=S(=O)(C(=CNc1cnc2ccccc2c1)S(=O)(=O)c1ccccc1)c1ccccc1` [E, 1,1-bis(phenylsulphonyl)-2-(quinol-3-ylamino)ethene], the “% inhibition” value worked out at 38%.
Still for that read-out and setting: for `O=S(=O)(C(=CNc1ccc2ccccc2n1)S(=O)(=O)c1ccccc1)c1ccccc1` [G, 1,1-bis(phenylsulphonyl)-2-(quinol-2-ylamino)ethene] the value was 30%.

Still in this assay, the particulars now being: mice, dose 40 mg/kg animal body weight.
As for `NC(=O)c1cnc(NC=C(S(=O)(=O)c2ccccc2)S(=O)(=O)c2ccccc2)cn1` [I, 1-(5-carbamoylpyrazin-2-ylamino)-2,2-bis(phenylsulphonyl)ethene], the “% inhibition” value worked out at 30%.

The assay is the same for the next values; noted with them: mice, dose 50 mg/kg animal body weight.
With `O=S(=O)(C(=CNc1nc2ccccc2s1)S(=O)(=O)c1ccccc1)c1ccccc1` [D, 1-(benzothiazol-2-ylamino)-2,2-bis(phenylsulphonyl)ethene], the “% inhibition” value came out at 27%.
On the same count and under the same terms, for `O=S(=O)(C(=CNc1cnc2ccccc2c1)S(=O)(=O)c1ccccc1)c1ccccc1` [E, 1,1-bis(phenylsulphonyl)-2-(quinol-3-ylamino)ethene] the value was 15%; for `O=S(=O)(C(=CNc1ccc2ccccc2n1)S(=O)(=O)c1ccccc1)c1ccccc1` [G, 1,1-bis(phenylsulphonyl)-2-(quinol-2-ylamino)ethene], 24%.

For a further assay, the system named is lipoxygenase. Kind of assay: inhibition of lipoxygenase in vitro. The assay is classed as biochemical. The conditions noted are these: 0.0001M. The text has this: For example, in tests in vitro at concentrations of 0.0001M, a compound of formula I inhibited lipoxygenase by the percentage shown in the following Table III.
With `CCOC(=O)C(=CNc1ncccc1C)C(=O)OCC` [Compound AM, 1,1-bis(ethoxycarbonyl)-2-(3-methylpyrid-2-ylamino)ethene], the “% inhibition of lipoxygenase” value came out at 62%.

For another assay, the system named is mouse macrophage cells. Kind of assay: reduction by 50% of inhibition of migration of incubated mouse macrophage cells (antagonism or reduction of lymphokine levels). The conditions noted are these: po, twice: one hour before and four hours after antigen, each time at the dose shown, mice. Format: in vivo. How it is done: For example, from tests in mice it was calculated that compounds of formula I, when twice administered orally, one hour before and four hours after the administration of antigen, each time at the doses shown in the following Table I, would reduce by 50% the inhibition of migration of incubated mouse macrophage cells measured in a manner similar to that described by Likhite et al, Cellular Immunology, Vol 5, 1972, page 377. This is a measure of antagonism or reduction of the levels of lymphokines and is indicative of utility in the treatment of arthritic patients.
By ED50 is commonly meant the dose that gives a 50% effect, or the effect in half of the subjects. Read a low ED50 as greater potency. `Cc1cc(C)nc(NC=CC=O)c1` [AI, 1-formyl-2-(4,6-dimethylpyrid-2-ylamino)ethene] yielded a median effective dose (ED50) of 5.2 mg/kg.
In the case of `Cn1cc(C(N)=O)ccc1=NC=C(S(=O)(=O)c1ccccc1)S(=O)(=O)c1ccccc1` [AP, 2-[2,2-bis(phenylsulphonyl)ethen-1-ylimino]-5-carbamoyl-1-methylpyridine], the ED50 is less than 10 mg/kg.
Same read-out and setting: to `O=S(=O)(C(=CNc1nccnn1)S(=O)(=O)c1ccccc1)c1ccccc1` [C, 1,1-bis(phenylsulphonyl)-2-(1,2,4-triazin-3-ylamino)ethene] belongs 2 mg/kg.
On the same count and under the same terms, to `O=S(=O)(C(=CNc1nccs1)S(=O)(=O)c1ccccc1)c1ccccc1` [Compound A, 1,1-bis(phenylsulphonyl)-2-(thiazol-2-ylamino)ethene] belongs 10 mg/kg; to `O=[N+]([O-])c1ccc(N(C=CS(=O)(=O)c2ccccc2)c2ccc(Br)cn2)cc1` [Compound BE, 1-[N-(5-bromopyrid-2-yl)-N-(4-nitrophenyl)]amino-2-phenylsulphonylethene], 4.4 mg/kg; to `Cc1cc(NC=C(S(=O)(=O)c2ccccc2)S(=O)(=O)c2ccccc2)nc(C)n1` [H, 1-(2,6-dimethylpyrimidin-4-ylamino)-2,2-bis(phenylsulphonyl)ethene], less than 10 mg/kg.
The same measure, in the same setting: for `CS(=O)(=O)C(C#N)=CNc1ccc(Br)cn1` [N, 2-(5-bromopyrid-2-ylamino)-1-cyano-1-methylsulphonylethene] the value was 28 mg/kg; for `CC(=O)C(=CNc1ccc(Br)cn1)S(=O)(=O)c1ccccc1` [O, 1-acetyl-2-(5-bromopyrid-2-ylamino)-1-phenylsulphonylethene], 14 mg/kg; for `O=S(=O)(C(=CNCc1ccccc1)S(=O)(=O)c1ccc(Cl)cc1)c1ccc(Cl)cc1` [V, 2-benzylamino-1,1-bis(4-chlorophenylsulphonyl)ethene], less than 10 mg/kg.
With `O=S(=O)(C(=CNCc1ccccn1)S(=O)(=O)c1ccc(Cl)cc1)c1ccc(Cl)cc1` [W, 1,1-bis(4-chlorophenylsulphonyl)-2-(pyrid-2-ylmethylamino)ethene], the 50% effective dose (ED50) was less than 10 mg/kg.
Still for that read-out and setting: for `O=S(=O)(C(=CNc1ccccc1)S(=O)(=O)c1ccccc1)c1ccccc1` [Z, 1-phenylamino-2,2-bis(phenylsulphonyl)ethene] the value was 2 mg/kg.
